Measured values taken from patent US20120165319A1, “INHIBITORS OF INTERLEUKIN-1 BETA CONVERTING ENZYME” (VERTEX PHARMACEUTICALS INCORPORATED, priority 1995, published 2012).

Legend:
[1] = molecular target: T1, ICE (Homo sapiens, UniProt P29466); assay: Enzyme assay with UV-visible substrate (visible ICE assay, Succinyl-Tyr-Val-Ala-Asp-pNitroanilide); type: biochemical; settings: Table 5
T1 sequence (P29466 120-297 limits assumed): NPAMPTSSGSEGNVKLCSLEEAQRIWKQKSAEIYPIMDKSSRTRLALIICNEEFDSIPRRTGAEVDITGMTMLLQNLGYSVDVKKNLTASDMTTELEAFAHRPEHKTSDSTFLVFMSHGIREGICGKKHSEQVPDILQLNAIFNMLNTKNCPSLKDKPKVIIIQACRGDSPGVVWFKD
T1 sequence (P29466 317-404 limits assumed): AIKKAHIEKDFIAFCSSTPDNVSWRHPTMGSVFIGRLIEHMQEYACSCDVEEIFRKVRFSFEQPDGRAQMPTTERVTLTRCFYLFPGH
Procedure, shortened: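 Colorimetric caspase-1 activity: 15 min enzyme-inhibitor preincubation (RT), then Suc-Tyr-Val-Ala-Asp-pNA; 405-603 nm kinetics, 20 min, 37° C. Ki from rate fitting.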

[2] = test system: IL-1β, human peripheral blood mononuclear cells (PBMC); assay: PBMC cell assay: IL-1β assay with human PBMC or enriched adherent mononuclear cells, LPS-stimulated; type: cell-based; settings: * = values obtained upon reassay
From the text: IL-1β Assay with a Mixed Population of Human Peripheral Blood Mononuclear Cells (PBMC) or Enriched Adherent Mononuclear Cells
Processing of pre-IL-1β by ICE can be measured in cell culture using a variety of cell sources. Human PBMC obtained from healthy donors provides a mixed population of lymphocyte subtypes and mononuclear cells that produce a spectrum of interleukins and cytokines in response to many classes of physiological stimulators. Adherent mononuclear cells from PBMC provides an enriched source of normal monocytes for selective studies of cytokine production by activated cells.
An initial dilution series of test compound in DMSO or ethanol is prepared, with a subsequent dilution into RPMI-10% FBS media (containing 2 mM L-glutamine, 10 mM HEPES, 50 U and 50 ug/ml pen/strep) respectively to yield drugs at 4× the final test concentration containing 0.4% DMSO or 0.4% ethanol. The final concentration of DMSO is 0.1% for all drug dilutions. A concentration titration which brackets the apparent Ki for a test compound determined in an ICE inhibition assay is generally used for the primary compound screen.
Generally 5-6 compound dilutions are tested and the cellular component of the assay is performed in duplicate, with duplicate ELISA determinations on each cell culture supernatant.
PBMC Isolation and IL-1 Assay:
Buffy coat cells isolated from one pint human blood (yielding 40-45 ml final volume plasma plus cells) are diluted with media to 80 ml and LeukoPREP separation tubes (Becton Dickinson) are each overlaid with 10 ml of cell suspension. After 15 min centrifugation at 1500-1800×g, the plasma/media layer is aspirated and then the mononuclear cell layer is collected with a Pasteur pipette and transferred to a 15 ml conical centrifuge tube (Corning). Media is added to bring the volume to 15 ml, gently mix the cells by inversion and centrifuge at 300×g for 15 min. Resuspend the PBMC pellet in a small volume of media, count cells and adjust to 6×10^6 cells/ml.
For the cellular assay, 1.0 ml of the cell suspension is added to each well of a 24-well flat bottom tissue culture plate (Corning), 0.5 ml test compound dilution and 0.5 ml LPS solution (Sigma #L-3012; 20 ng/ml solution prepared in complete RPMI media; final LPS concentration 5 ng/ml). The 0.5 ml additions of test compound and LPS are usually sufficient to mix the contents of the wells. Three control mixtures are run per experiment, with either LPS alone, solvent vehicle control, and/or additional media to adjust the final culture volume to 2.0 ml. The cell cultures are incubated for 16-18 hr at 37° C. in the presence of 5% CO2.
At the end of the incubation period, cells are harvested and transferred to 15 ml conical centrifuge tubes. After centrifugation for 10 min at 200×g, supernatants are harvested and transferred to 1.5 ml Eppendorf tubes. It may be noted that the cell pellet may be utilized for a biochemical evaluation of pre-IL-1β and/or mature IL-1β content in cytosol extracts by western blotting or ELISA with pre-IL-1β specific antisera.
Isolation of Adherent Mononuclear Cells:
PBMC are isolated and prepared as described above. Media (1.0 ml) is first added to wells followed by 0.5 ml of the PBMC suspension. After a one hour incubation, plates are gently shaken and nonadherent cells aspirated from each well. Wells are then gently washed three times with 1.0 ml of media and final resuspended in 1.0 ml media. The enrichment for adherent cells generally yields 2.5−3.0×10^5 cells per well. The addition of test compounds, LPS, cell incubation conditions and processing of supernatants proceeds as described above.
We have used Quantikine kits (R&D Systems) for measurement of mature IL-1β. Assays are performed according to the manufacturer's directions. Mature IL-1β levels of about 1-3 ng/ml in both PBMC and adherent mononuclear cell positive controls are observed. […]

Ki [1] [nM] | SMILES | IC50 ([2]; Homo sapiens, PBMC) [nM] | IC50 [2] [nM]
114 | O=C(O)C[C@H](NC(=O)CN1C(=O)[C@@H](NC(=O)CCc2ccccc2)CN(C(=O)CCc2ccccc2)c2ccccc21)C(=O)c1nc2cc(Cl)cc(Cl)c2o1 [Compound 609a, (3S)-3-[(3S)-2-Oxo-3-(3-phenylpropionylamino)-5-(3-phenylpropionyl)-2,3,4,5-tetrahydro-1H-1,5-benzodiazepin-1-acetylamino]-4-(5,7-dichlorobenzoxazol-2-yl)-4-oxo-butyric acid] | > 30000 | 
15 | O=C[C@H](CC(=O)O)NC(=O)[C@@H]1CCCN2C(=O)CC[C@H](NC(=O)c3ccc(CO)cc3)C(=O)N12 [Compound 479] | 900 | 
12 | O=C[C@H](CC(=O)O)NC(=O)[C@@H]1CCCN2C(=O)CC[C@H](NC(=O)c3ccc4ccccc4c3O)C(=O)N12 [Compound 449] | 1500 | 
650 | CS(=O)(=O)N1C[C@H](NC(=O)c2ccccc2)C(=O)N(CC(=O)N[C@H](C=O)CC(=O)O)c2ccccc21 [Compound 605m, (3S)-3-[(3S)-2-Oxo-3-benzoylamino-5-methanesulfonyl-2,3,4,5-tetrahydro-1H-1,5-benzodiazepin-1-acetylamino]-4-oxo-butyric acid] | 20000 | 
60 | CC(=O)Nc1ccccc1C(=O)N[C@H]1CCC(=O)N2CCC[C@@H](C(=O)N[C@H](C=O)CC(=O)O)N2C1=O [Compound 430] | > 8000 | 
45 | O=C[C@H](CC(=O)O)NC(=O)[C@@H]1CCCN2C(=O)CC[C@H](NC(=O)c3cccnc3)C(=O)N12 [Compound 454] | 2500 | 
4.3 | COC(=O)Nc1ccc(C(=O)N[C@H]2CCC(=O)N3CCC[C@@H](C(=O)N[C@H](C=O)CC(=O)O)N3C2=O)cc1 [Compound 490] | 1000 | 
20 | O=C[C@H](CC(=O)O)NC(=O)[C@@H]1CCCN2C(=O)CC[C@H](NC(=O)c3ccc(F)c(F)c3)C(=O)N12 [Compound 458] | 2900 | 
5 | O=C[C@H](CC(=O)O)NC(=O)[C@@H]1CCCN2C(=O)CC[C@H](NC(=O)c3ccc(OC(=O)c4ccccc4)cc3)C(=O)N12 [Compound 491] | 2500 | 
25 | CC(=O)Nc1ccc(C(=O)N[C@H]2CCC(=O)N3CCC[C@@H](C(=O)N[C@H](C=O)CC(=O)O)N3C2=O)cc1NC(C)=O [Compound 480] | 2300 | 
165 | CC(=O)CC(=O)N1C[C@H](NC(=O)c2ccccc2)C(=O)N(CC(=O)N[C@H](C=O)CC(=O)O)c2ccccc21 [Compound 605g, (3S)-3-[(3S)-2-Oxo-3-benzoylamino-5-acetoacetyl-2,3,4,5-tetrahydro-1H-1,5-benzodiazepin-1-acetylamino]-4-oxo-butyric acid] | 22500 | 
27 | CC(=O)N1C[C@H](NC(=O)c2ccccc2)C(=O)N(CC(=O)N[C@@H](CC(=O)O)C(=O)c2nc3cc(Cl)cc(Cl)c3o2)c2ccccc21 [Compound 609b, (3S)-3-[(3S)-2-Oxo-3-benzoylamino-5-acetyl-2,3,4,5-tetrahydro-1H-1,5-benzodiazepin-1-acetylamino]-4-(5,7-dichlorobenzoxazol-2-yl)-4-oxo-butyric acid] | > 20000 | 
1200 | CC(=O)N[C@H]1CCC(=O)N2CCC[C@@H](C(=O)N[C@H](C=O)CC(=O)O)N2C1=O [Compound 214c, [3S(1S,9S)]3-(9-Acetylamino-6,10-dioxo-1,2,3,4,7,8,9,10-octahydro-6H-pyridazino-[1,2-a][1,2]diazepine-1-carboxamido)-4-oxobutanoic acid] | 5000 | 
460 | COC(=O)C(=O)N1C[C@H](NC(=O)c2ccccc2)C(=O)N(CC(=O)N[C@H](C=O)CC(=O)O)c2ccccc21 [Compound 605h, (3S)-3-[(3S)-2-oxo-3-benzoylamino-5-methyloxalkyl-2,3,4,5-tetrahydro-1H-1,5-benzodiazepin-1-acetylamino]-4-oxo-butyric acid] | > 25000 | 
500 | O=C[C@@H](CCC(=O)O)NC(=O)[C@@H]1CCCN2C(=O)CC[C@H](NC(=O)c3ccccc3)C(=O)N12 [Compound 238e, [4R,(1S,9S)]-4-[9-(Benzoylamino)-6,10-dioxo-1,2,3,4,7,8,9,10-octahydro-6H-pyridazino-[1,2-a][1,2]diazepine-1-carboxamido]-5-oxopentanoic acid] | 4250 | 
200 | CCS(=O)(=O)N[C@H]1CCC(=O)N2CCC[C@@H](C(=O)N[C@H](C=O)CC(=O)O)N2C1=O [Compound 421] | 4300 | 4600
14 | O=C[C@H](CC(=O)O)NC(=O)[C@@H]1CCCN2C(=O)CC[C@H](NC(=O)c3ccc(F)cc3)C(=O)N12 [Compound 463] | 2400 | 2800
750 | O=C[C@H](CC(=O)O)NC(=O)[C@@H]1CCCN2C(=O)CC[C@H](NC(=O)C3CC3)C(=O)N12 [Compound 413] | 6200 | 
475 | CC(C)CC(=O)N1C[C@H](NC(=O)c2ccccc2)C(=O)N(CC(=O)N[C@H](C=O)CC(=O)O)c2ccccc21 [Compound 605f, (3S)-3-[(3S)-2-Oxo-3-benzoylamino-5-(3-methylbutyryl)-2,3,4,5-tetrahydro-1H-1,5-benzodiazepin-1-acetylamino]-4-oxo-butyric acid] | 12500 | 
